# Tests used:
# [1] = molecular target: FLT3-ITD (Homo sapiens, UniProt P36888, ITD); assay: Cell-free kinase assay, dose-response (Reaction Biology, ADP-Glo); assay type: biochemical; details: FLT3-ITD 100 nM; ATP 100 μM; read-out: IC50 against FLT3-ITD
# Protocol: (§1) Cell-free kinase activity assays were performed at Reaction Biology Corporation. Briefly, kinases were incubated with substrates, 100 μM ATP and a 3-fold serial dilution of compounds starting at 1 μM. DMSO was used as control. […] Experiments were performed in duplicates. The concentrations of kinases and substrates used in the assays are indicated on Table S1. Kinase activity was quantified using the ADP-Glo™ Kinase Assay System (Promega, Madison, WI) following the manufacturer's recommendations.
# [2] = molecular target: T1, Src (Homo sapiens, UniProt P12931); assay: Cell-free kinase assay (Reaction Biology, ADP-Glo); assay type: biochemical
# T1 construct: purchased Invitrogen PR4336E
# T1 sequence (P12931 whole entry): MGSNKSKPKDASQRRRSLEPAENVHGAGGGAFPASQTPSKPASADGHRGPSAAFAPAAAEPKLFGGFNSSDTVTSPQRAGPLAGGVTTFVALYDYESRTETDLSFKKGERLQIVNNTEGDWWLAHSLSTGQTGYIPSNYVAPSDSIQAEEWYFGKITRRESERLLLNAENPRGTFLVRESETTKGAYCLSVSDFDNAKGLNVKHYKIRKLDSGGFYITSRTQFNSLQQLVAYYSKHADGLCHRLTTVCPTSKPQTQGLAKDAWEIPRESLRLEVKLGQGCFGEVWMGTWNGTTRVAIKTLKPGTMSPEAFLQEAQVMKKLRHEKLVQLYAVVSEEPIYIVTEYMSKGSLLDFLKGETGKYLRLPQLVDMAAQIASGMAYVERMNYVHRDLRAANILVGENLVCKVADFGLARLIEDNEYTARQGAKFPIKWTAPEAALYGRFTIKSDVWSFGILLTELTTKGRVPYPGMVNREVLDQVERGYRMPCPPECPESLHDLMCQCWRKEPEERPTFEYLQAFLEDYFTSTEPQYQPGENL
# Protocol: as §1
# [3] = tested on: MV4–11 cells; assay: Antiproliferative activity (CellTitre-Blue, 72 h); assay type: cell-based, human; details: Homo sapiens, MV4-11, 72 h, 72 h incubation, triplicates; read-out: IC50 (mean ±SD, nM) MV4–11
# Protocol: (§2) Cells were seeded into 96-well tissue culture-treated plates at 2.0 × 10^4 cells/mL for up to 24 h. DMSO stock solutions of compounds were serially diluted first in DMSO and subsequently into RPMI before being added to the cell cultures in triplicates, with 10 μM being the highest tested concentration. The plates were incubated for 72 h as above. The CellTitre-Blue assay (Promega, Madison WI) was then added to the cultures and incubated a further 4 h before the fluorescence measured following the manufacturers recommendations. The fluorescence data from compounds were normalized to that DMSO and the resulting data fitted to a non-linear regression equation to obtain IC50 using GraphPad Prism 5.0 Software (La Jolla, CA, USA).
# [4] = tested on: MOLM-14 cells; assay: Antiproliferative activity (CellTitre-Blue, 72 h); assay type: cell-based, human; details: Homo sapiens, MOLM-14; 72 h incubation, triplicates; read-out: IC50 (mean ±SD, nM) MOLM-14
# Protocol: as §2
# [5] = tested on: MOLM-14 (ITD, D835Y) cells; assay: Antiproliferative activity (CellTitre-Blue, 72 h); assay type: cell-based, human; details: 72 h incubation, triplicates; listed as 20 (HSN459); read-out: IC50 (mean ±SD, nM) MOLM-14 (ITD, D835Y)
# Protocol: as §2
# [6] = tested on: MOLM-14 (ITD, F691 L) cells; assay: Antiproliferative activity (CellTitre-Blue, 72 h); assay type: cell-based, human; details: 72 h incubation, triplicates; listed as 20 (HSN459); read-out: IC50 (mean ±SD, nM) MOLM-14 (ITD, F691 L)
# Protocol: as §2
# [7] = molecular target: T2, FLT3 (Homo sapiens, UniProt P36888); assay: Cell-free kinase assay, single dose (Reaction Biology, ADP-Glo); assay type: biochemical; details: inhibitor 500 nM; 100 μM ATP; average of duplicate
# T2 construct: purchased Invitrogen PV3182
# T2 sequence (P36888 564-993 limits assumed): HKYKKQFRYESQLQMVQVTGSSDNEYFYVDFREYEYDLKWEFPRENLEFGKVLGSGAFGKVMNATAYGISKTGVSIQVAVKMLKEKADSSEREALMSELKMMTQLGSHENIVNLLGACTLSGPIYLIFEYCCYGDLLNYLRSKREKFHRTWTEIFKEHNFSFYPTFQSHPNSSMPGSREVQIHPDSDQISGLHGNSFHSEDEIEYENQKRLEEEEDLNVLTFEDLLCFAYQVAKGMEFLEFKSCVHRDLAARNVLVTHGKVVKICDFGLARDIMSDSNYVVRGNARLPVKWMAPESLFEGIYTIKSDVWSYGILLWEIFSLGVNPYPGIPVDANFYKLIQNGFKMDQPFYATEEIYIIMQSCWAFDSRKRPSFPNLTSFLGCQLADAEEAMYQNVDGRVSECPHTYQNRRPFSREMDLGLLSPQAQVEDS
# Protocol: as §1, with “Briefly, kinases were incubated with substrates, 100 μM ATP and a 3-fold serial dilution of compounds starting at 1 μM.” left out
# [8] = tested on: MV4–11-luc cells; assay: In vivo efficacy, orthotopic human AML model
# Protocol: The in vivo efficacy of compounds was assessed in an orthotopic human AML model in NSG (NOD scid gamma, NOD-scid IL2Rg^null) mice that were bred at University of Maryland Baltimore (mating pairs acquired from Jackson Laboratories; Maine). […]. Three days later, engraftment was assessed by imaging on a Xenogen IVIS-2 Imaging System (Alameda) after an intraperitoneal (IP) injection of 150 mg/kg luciferin. Mice were sorted into four or five groups (n = 5) so that mean intensity (i.e., disease burden) was equal. Dosing started on day of sorting. Compounds were dissolved in 85% PBS (pH 7.4) buffer containing 10% DMSO and 5% Cremophore. The vehicle (buffer without compounds) was used as control. Mice were injected 3 to 5 days per week via IP injection. Mice were weighed on day of dosing and imaged once per week. […]. All mice were housed in a 12-h light/dark cycle with access to food and water ad libitum. Studies were performed with Institutional Animal Care and Use Committee (UMB and Purdue University) approval.
# […]. Female mice were dosed daily for 5 days via intraperitoneal injection and then monitored for an additional week for weight loss, a sign of toxicity in mice. […] To evaluate the anti-leukemic efficacy in vivo, six-week-old female NSG or NRG mice were injected intravenously with FLT3-ITD expressing acute myeloid leukemia cells (MV4–11), expressing luciferase. […] Dosing (i.p) with the compounds was then started. The mice were dosed with 25 mg/kg of the compounds three times a week (MWF). […] […].
smiles,measurement,setting,value
Cc1ncc(C(=O)Nc2ccc(CN3CCN(C)CC3)c(C(F)(F)F)c2)cc1C#Cc1cnc(N)c2ncccc12 [Compound 20],IC50,[1],4.8 nM
same,IC50,"[2]; Src 0.6 nM, ATP 100 μM, read-out: IC50 against Src",12.2 nM
same,inhibition at 0.5 µM,"[2]; inhibitor 500 nM, 100 μM ATP, average of duplicate",100%
same,IC50,[3],0.3 ± 0.004 nM
same,IC50,[4],0.2 ± 0.002 nM
same,IC50,[5],4 ± 0.02 nM
same,IC50,[6],0.9 ± 0.004 nM
same,inhibition at 0.5 µM,[7],97%
same,body weight in efficacy study,"[8]; 25 mg/Kg i.p. three times a week, after one week",lost weight
same,reduction in leukemia burden,"[8]; 25 mg/kg i.p. three times a week (MWF), NSG or NRG mice",> 99%
same,tolerability in efficacy study,[8]; dose reduced to 10 mg/kg,tolerable

# Reference: paper PMC6413339 (EBioMedicine, 2019)
